Publication PMC7845544 (Frontiers in Pharmacology, 2021)
Several values for one entry are separate records, joined by “and”; a condition that tells them apart may be missing. Identical values can stand only once. Entries after “also recorded” stand apart in the source; their conditions may differ.

Tests used:
[1] = Solubility in PBS; format: physicochemical; conditions: PBS (pH 7.4)
[2] = system: human granulosa cells; assay: Estradiol production by human granulosa cells from individual patients by diagnosis (NOR, ARA, PCOS); format: cell-based
Method: Human granulosa cells were prepared from the spent follicular fluid of women undergoing IVF treatment at Boston IVF Center (Waltham, MA, United States) and at Family Fertility Center (Baylor College of Medicine, Houston, TX, United States) following methods previously established ([Breckwoldt et al., 1996]; [Amsterdam et al., 2003]). Institutional review board approval and informed consent from the patients were obtained before collecting the follicular fluid samples. In brief, red blood cells (RBCs) in the follicular aspirate were lyzed using RBC lysis buffer (Quality Biological Inc., Gaithersburg, MD, United States), and washed extensively with PBS and DMEM/F12 containing 5% FBS, fungizone, and the antibiotics penicillin (100 IU/ml) and streptomycin (100 μg/ml). Subsequently, cells from the aspirate were plated in T75 flasks, cultured for 7 days with fresh media being replaced every other day. At the end of the culture period, cells were released from the flask by trypsin and transferred to 96-well plates (5,000 cells/well, Greiner Bio-One). Following 48 h of culture, media in culture wells was replaced with serum free media containing 0.1% BSA and 10^−7 M androstenedione. Following 24 h of serum starvation, cells were stimulated with fresh media (0.1% BSA, 10^−7 M androstenedione) with FSH or compound for 48 h. Supernatant was collected and stored at −80C for determination of estradiol by ELISA.
Clinical definitions of patient sub-populations for patients at Texas Fertility followed guidelines outlined by the Practice Committee of the American Society for Reproductive Medicine ([Practice Committee of the American Society for Reproductive Medicine, 2015]). […] Advanced reproductive age (ARA) was defined as woman of 35 years old or greater in age, based on the definition of advanced maternal age by Society for Maternal-Fetal Medicine. Polycystic Ovarian Syndrome (PCOS) is a patient with two out of the three Rotterdam criteria ([Rotterdam ESHRE/ASRM-Sponsored PCOS Consensus Workshop Group, 2004]) which includes hyperandrogenism (hirsutism or biochemical), oligomenorrhea or amenorrhea, and/or polycystic ovaries on ultrasound.

[3] = Dog pharmacokinetics; format: in vivo; conditions: 10 mg/kg
[4] = Monkey pharmacokinetics; format: in vivo; conditions: data not shown
[5] = system: immature B6C3F1 mice; assay: Superovulation assay in immature mice; format: in vivo, mouse; conditions: 30 and 100 mg/kg, mice receiving low dose rec-hFSH (0.15 IU)
Method: Immature SD rats and B6C3F1 mice (both 18–21 day old females) were purchased from Charles-River laboratories (Wilmington, MA, United States and Shanghai, China). All animals were treated in accordance to Chempartner (Shanghai, China) or Embryotech (Haverhill, MA, United States) IACUC approved animal protocols. The animals were provided water and food ad libitum and housed under 12 h dark and 12 h light schedules.
Immature rats and mice were used to investigate the ability of the small molecules to induce follicular development and support ovulation as described elsewhere ([Steelman and Pohley, 1953]) with modifications ([Sriraman et al., 2014]). […] […] The isolated COC’s were treated with hyaluronidase and the total number of ovulated oocytes was determined microscopically.
[…] […] In some experiments, serum was collected from the animals prior to the ovulatory dose of hCG to determine estradiol levels. Plasma concentrations of FSHR-AA were measured during superovulation assays, except for experiments where plasma was collected for estradiol measurements.

[6] = system: mammalian cell; assay: Chromosomal aberrations, micronucleus test (MNT); format: cell-based
[7] = system: 211 kinases; assay: Kinase profile (Eurofins); format: biochemical
[8] = system: 55 targets; assay: Single concentration Cerep profile (Eurofins); format: binding; conditions: 10 uM
[9] = system: Sprague Dawley rats
Method: Toxicological evaluations were performed in both rat and dog as the second species according to the guidance from FDA. […] The animals were administered vehicle or 30, 100, 300 and 1,000 mg/kg by oral gavage for 14 days. […] Separate groups of animals (n = 6/sex/dose) were used for toxicokinetic (TK) analysis. On day 1 and day 14 of drug administration, serial blood samples were collected from 5 min to 24 h from the TK group animals for analytical measurement of the compound. Blood samples were placed on ice immediately after collection and were centrifuged at approximately 8,000 rpm for 6 min at 2–8°C and the resulting plasma were separated and stored in pre-labeled plastic tubes or vials. The amount of compound in the plasma samples were measure using an HPLC method. […] Evaluated parameters included; mortality, clinical signs, body weight, food consumption, urinalysis, hematology, clinical chemistry, gross post mortem examinations, organ weights and histopathological evaluations of selected tissues. At the end of 14-days of treatment, animals were sacrificed and blood collected for serum chemistry, coagulation and hematological analysis, organ weighed and histological analysis performed in select tissue from control and high dose group.

[10] = system: beagle dogs; assay: 14-day toxicity and toxicokinetics in Beagle dog; format: in vivo
Method: Male and female beagle dogs were received from Beijing Marshall Biotechnology Co., Ltd (Beijing, China) and group housed at Covance (Shanghai, China), except for 5 h each day in stainless steel cages for study-related procedures. […] Blood samples (approximately 1.0 ml) were collected for thyroid hormone analysis on Days 0, prior to dosing, 24 h post dose (prior to second dose on Day 2) and once prior to dosing on Day 14. Blood was collected into serum separator tubes (without anticoagulant), allowed to clot at room temperature, and centrifuged for approximately 10 min in a refrigerated centrifuge at approximately at 3,500 g within 2 h of collection. Serum was harvested and placed in a freezer for subsequent thyroid hormone measurement.

[11] = system: NK2 receptor; conditions: dose response
[12] = system: Cl-channel (GABA-gated); conditions: dose response

For `COc1cc(C(N)=O)cc(-c2cc3c(cc2OC)OCc2c(C(=O)N(C)C(C)(C)C)nn(-c4cc(Cl)cc(Cl)c4)c2-3)n1` [TOP5668], the “fold more soluble than TOP5300” value [1] was 14 fold.
In the case of `COc1cc2c(cc1-c1cnn(CCO)c1)-c1c(c(C(=O)N(C)C(C)(C)C)nn1-c1cc(Cl)cc(Cl)c1)CO2` [TOP5300], the “fold higher concentration than rec-hFSH required to stimulate maximum estradiol production” value [2] is reported as “approximately 20 fold”, the “Estradiol (pg/ml), ARA (n = 6)” value ([2]; FSH (20 nM) or TOP5300 (400 nM), advanced reproductive age, mean ± SD) is reported as 10,648 ± 7,338 pg/ml and the “Estradiol (pg/ml), NOR (n = 2)” value ([2]; FSH (20 nM) or TOP5300 (400 nM), normal ovarian reserve, mean) is reported as 4,829 pg/ml. The “Estradiol (pg/ml), PCOS (n = 4)” value ([2]; FSH (20 nM) or TOP5300 (400 nM), polycystic ovarian disease, mean ± SD) was 1,276 + 1,563 pg/ml, the “Dog PK AUC” value [3] was 8,719 ng*h/ml and the “Dog PK T1/2” value [3] was 9 h and 9.4 h. For the same compound, the “Dog PK F%” value ([3]; oral bioavailability) was 32%, the “half-life, monkey PK” value [4] was 12.1 h and the “follicular growth and ovulation” value [5] was “dose-dependent increases in follicular growth and ovulation”. For the same compound, the “Micronucleus Test (MNT) result” value [6] was “N e g a tiv e; also recorded: inactive”, the “Kinase profile @ 10 uM” value [7] was “N o si g ni fi cant i nhi bi ti on any; also recorded: failed to inhibit activity” and the “number of targets < 60% inhibition” value [8] was 52 targets. The “number of targets > 60% inhibition” value [8] was 3 targets, the “margin of safety between first significant efficacy (5 mg/kg) and NOAEL (300 mg/kg)” value ([9]; rat) was 60 fold and the “accumulation after 14-days repeated dosing” value ([9]; rat, in vivo) was “not observed”. The “NOAEL, female rat” value ([9]; rat, in vivo, po) was 300 mg/kg, the “NOAEL, male rat” value ([9]; rat, in vivo, po) was 1,000 mg/kg and the “Tmax, Day1” value ([9]; rat, in vivo, po) was 2 to 8 h. For the same compound, the “Tmax, Day14” value ([9]; rat, in vivo, po) was 2 to 8 h, the “mortality, rat” value ([9]; up to 1,000 mg/kg, 14 days) was “all animals survived the duration of the study” and the “mortality or morbidity, dog” value ([10]; 14 days, up to 1,000 mg/kg) was “no mortality or morbidity occurred”. The “NOAEL, dog” value ([10]; dog, in vivo, po) was 1,000 mg/kg/day, the “selectivity / safety margin compared to FSHR, NK2(h)” value [11] was “over 400 fold” and the “selectivity / safety margin compared to FSHR, Cl-channel (GABA-gated)” value [12] was “over 400 fold”.
